Consider 1 compound from patent publication US12257253B2, “Triamterene or nolatrexed for use in the treatment of phenylketonuria” (SOM INNOVATION BIOTECH, S.A., priority 2019, dated 2025).

What all share (assay type): binding
In experiment [1] the target is Arg261Gln (R261Q) PAH (Homo sapiens (Human), UniProt P00439, R261Q). Briefly: Thermal stability shift assay (DSF). The note with it: compound 30 μM (BH4 43 μM). The source says: (§1) 1. Thermal Stability Shift Assay
(§2) Thórólfsson et al. (Biochemistry, 2002, 41(24), 7573-7585) describe that the thermal denaturation of hPAH occurs in three stages: (i) unfolding of the four regulatory domains, which is responsible for the low-temperature calorimetric transition (ii) unfolding of two (out of the four) catalytic domains, which is responsible for the high-temperature transition; and (iii) irreversible protein denaturation. The most important domain for stabilization is the regulatory domain.
(§3) Thus, to test the compound effect on thermal stability of the target protein a thermal stability shift assay (also called differential scanning fluorimetry (DSF)) was performed [Niesen F. H. et al., Nat Protoc., 2007, 2(9), 2212-2221; Gersting S. W. et al., Human Molecular Genetics, 2010, 19(10), 2039-2049; and Gersting S. W. et al., J. Biol Chem. 2010, 285(40), 30686-30697]. DSF monitors thermal unfolding of proteins in the presence of a fluorescent dye (SYPRO Orange; λexc=465 nm, λem=610 nm) and was performed using a real-time PCR instrument (Applied BioSystems 7000HT Fast Real-Time PCR System). Compounds that increase the midpoints of thermal denaturation (Tm) are considered to bind and stabilize the protein.
(§4) In brief, purified wild-type or Arg261Gln (which is the most frequent mutation responsive to BH4) PAH proteins (diluted in 20 mM NaHEPES, pH 7.0 and 200 mM NaCl, 2 mM DTT to 2 mg/ml) were used at a final concentration of 0.2 mg/ml protein per sample. The compounds were tested at a final concentration of 30 μM. A no compound control (NCC) was used according to the compound solvent at a final concentration of 2% (H2O, DMSO, ethanol, methanol). As a positive control we used the natural cofactor 6R-L-erythro-5,6,7,8-tetrahydrobiopterin (BH4, CAS 69056-38-8) stabilized in 100 mM dithiothreitol (DTT), in a final concentration of 43 μM. To exclude unspecific effects of the compound to the dye, a no protein control (NPC) was added (buffer, compound, dye). The measurement was performed in duplicates and samples were denatured by scanning a temperature range of 20 to 75° C. at a scan rate of 0.5° C./min.
(§5) The data was normalized and the respective Tm values were calculated by bi-phasic equation to determine temperatures at which half denaturation occurred (Software GraphPadPrism). To identify compound specific effects on the thermal stability of the target protein, the reference Tm (NCC) was used to calculate the temperature shift between compound treated and not treated protein (Tm−TmNCC), from duplicates, to provide transition midpoints shifts (ΔTm1 and ΔTm2). Tm1 and Tm2 are the two different transition mid point of the unfolding process of the protein as the tetrameric protein PAH unfolds in two steps due to its domains. A shift in Tm1 of 2° C. reflects a relevant increase in thermal stability on the regulatory domain and, thus, is considered a positive result.

The target in experiment [2] is T1, wild-type PAH (Homo sapiens (Human), UniProt P00439). Briefly: Thermal stability shift assay (DSF). Particulars: compound 30 μM (BH4 43 μM).
Description: as §1, §2, §3, §4, §5

The target of experiment [3] is T1, wild-type PAH. In words: Isothermal titration calorimetry. Particulars: ITC. The source says:
4. Isothermal Titration Calorimetry
Isothermal titration calorimetry (ITC) is a quantitative physical technique used to determine binding affinities of small molecules to proteins or other larger molecules [Freyer M. W. and Lewis E. A., Methods in Cell Biology, 2008, vol. 4, Chapter 4, pages 79-113]. The measurement detects changes of heat generated or absorbed when molecules interact, generate binding kinetics and thermodynamic profile of the molecular interaction. The following parameters are determined: KD (equilibrium dissociation constant), N (stoichiometry of the interaction (mol ligand/mol complex)), ΔH (enthalpy change), ΔG (Gibbs energy), T (temperature) and ΔS (entropy change).
ITC experiments were performed at 25° C. using a MicroCal PEAQ-ITC microcalorimeter (Malvern). PAH proteins were prepared in a HEPES buffer (HEPES 20 mM Hepes, 0.2M NaCl, 1 mM DTT, pH 7.0) containing 5% DMSO, in order to match the final DMSO concentration of the compounds dilutions. The protein concentration used (30 μM) was determined using ultraviolet (UV) absorbance at 280 nm. The compounds ([…]) were prepared using the exact same buffer. Twelve injections of 3 μL of compound/ligand were titrated into the sample cell (containing the protein) over 31 min with a stirring speed of 750 rpm. Data was baseline adjusted by subtracting the background obtained from equivalent injections of compound into the buffer solution. The titration curves were analyzed using MicroCal PEAQ-ITC analytics software (version 1.1.0.1262, Malvern Instruments Ltd.) using a model that assumes a set of identical binding sites where the total heat of the solution is calculated as:
[formula] where n is the number of binding sites, Mt is the total protein concentration in the cell, ΔH is the molar heat of ligand binding, Xt is the total concentration of ligand, and K the binding constant (K=1/KD). The heat released per injection (i), ΔQ(i), is calculated following the equation below, which compensates for the volume that is added in each injection (ΔVi). V0 is the initial volume in the cell.
The parameters, n, K, and ΔH are determined using non-linear square fitting using the Levenberg-Marquardt algorithm.

[4] abbreviates: shift of transition midpoint 1 vs NCC.
Where [5] appears, read: shift of transition midpoint 2 vs NCC.

T1 sequence (P00439 whole entry): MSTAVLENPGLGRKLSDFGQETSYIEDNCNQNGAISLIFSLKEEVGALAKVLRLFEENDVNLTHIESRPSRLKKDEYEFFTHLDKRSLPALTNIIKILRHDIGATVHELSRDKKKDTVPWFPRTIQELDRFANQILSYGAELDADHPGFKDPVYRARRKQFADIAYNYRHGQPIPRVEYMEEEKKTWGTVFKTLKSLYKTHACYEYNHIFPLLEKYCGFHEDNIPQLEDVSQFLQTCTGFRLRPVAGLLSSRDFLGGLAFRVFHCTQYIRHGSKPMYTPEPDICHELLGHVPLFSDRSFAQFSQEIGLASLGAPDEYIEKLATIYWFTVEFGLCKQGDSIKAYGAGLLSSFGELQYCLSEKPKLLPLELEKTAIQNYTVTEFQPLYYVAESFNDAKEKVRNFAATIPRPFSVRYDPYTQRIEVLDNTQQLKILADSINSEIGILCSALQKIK
Chain of Arg261Gln (R261Q) PAH (P00439 whole entry R261Q, the tested form may be a part): as the sequence (P00439 whole entry) above, with R261Q counted along it

Take `Nc1nc(N)c2nc(-c3ccccc3)c(N)nc2n1` [Triamterene, 2,4,7-triamino-6-phenylpteridine]: in experiment [1] (setting [4]), the “ΔTm1 R261Q PAH” value worked out at 2.21 °C. Further, the “ΔTm2 R261Q PAH” value in experiment [1] (setting [5]) is 2.82 °C. Besides, the “ΔTm1 WT PAH” value in experiment [2] (setting [4]) came out at 0.33 °C. Also, the “ΔTm2 WT PAH” value in experiment [2] (setting [5]) amounted to 3.23 °C. For the same compound, in experiment [3] (25° C., WT PAH), the dissociation constant (Kd) is 3.03 µM, the “N (stoichiometry)” value was found to be 0.726 ± 0.00 sites, the ΔG was -7.53 kcal/mol and the ΔH was -5.54 ± 0.17 kcal/mol. Besides, the “−TΔS” value in experiment [3] (25° C., WT PAH) was -1.99 kcal/mol. In experiment [3] (recombinant PAH), the “Kd (in words)” value is “low micromolar range”.
